Results: ChEMBL document CHEMBL3526058, “Investigating the enteroenteric recirculation of apixaban, a factor Xa inhibitor: administration of activated charcoal to bile duct-cannulated rats and dogs receiving an intravenous dose and use of drug transporter knockout rats” (Drug Metab Dispos, 2013)

Columns and labels:
[1] = AUC (0 to infinity) in wild-type 30 mins activated charcoal pre-treated bile duct-cannulated Sprague-Dawley rat at 2 mg/kg, iv followed by activated charcoal administration 5 to 180 mins post compound dosing; assay type: ADME, organism-based; design: time infinity, dose 2 mg/kg, route intravenous; conditions: in vivo
[2] = Mean residence time in bile duct-cannulated beagle dog at 1 mg/kg, iv administered as 5 mins infusion followed by activated charcoal administration 10 to 420 mins post compound dosing; assay type: ADME, organism-based, Canis lupus familiaris; design: dose 1 mg/kg, route intravenous; conditions: in vivo
[3] = Half life in wild-type 30 mins activated charcoal pre-treated bile duct-cannulated Sprague-Dawley rat at 2 mg/kg, iv followed by activated charcoal administration 5 to 180 mins post compound dosing; assay type: ADME, organism-based; design: dose 2 mg/kg, route intravenous; conditions: in vivo
[4] = Mean residence time in P-gp-knockout Sprague-Dawley rat at 2 mg/kg, iv; assay type: ADME, organism-based; design: dose 2 mg/kg, route intravenous; conditions: in vivo
Canis familiaris [5] = assay: Metabolism and biliary clearance in bile duct-cannulated beagle dog at 1 mg/kg, iv administered as 5 mins infusion; assay type: ADME, organism-based, Canis lupus familiaris; design: dose 1 mg/kg, route intravenous; conditions: in vivo
[6] = Half life in bile duct-cannulated beagle dog at 1 mg/kg, iv administered as 5 mins infusion followed by activated charcoal administration 10 to 420 mins post compound dosing; assay type: ADME, organism-based, Canis lupus familiaris; design: dose 1 mg/kg, route intravenous; conditions: in vivo
[7] = Half life in BCRP-knockout Sprague-Dawley rat at 2 mg/kg, iv; assay type: ADME, organism-based; design: dose 2 mg/kg, route intravenous; conditions: in vivo
[8] = Drug recovery in bile of bile duct-cannulated P-gp-knockout Sprague-Dawley rat at 2 mg/kg, iv measured up to 24 hrs; assay type: ADME, organism-based; design: dose 2 mg/kg, route intravenous; conditions: read-out: Drug recovery
[9] = Drug recovery in bile of bile duct-cannulated Sprague-Dawley rat at 2 mg/kg, iv administered 1 hr post GF-120918 treatment measured up to 48 hrs; assay type: ADME, organism-based; design: dose 2 mg/kg, route intravenous; conditions: with GF-120918, given 1 hr before the compound, read-out: Drug recovery
[10] = Drug recovery in urine of beagle dog at 1 mg/kg, iv administered as 5 mins infusion measured up to 72 hrs; assay type: ADME, organism-based, Canis lupus familiaris; design: dose 1 mg/kg, route intravenous; conditions: read-out: Drug recovery
[11] = Clearance in BCRP-knockout Sprague-Dawley rat at 2 mg/kg, iv; assay type: ADME, organism-based; design: dose 2 mg/kg, route intravenous; conditions: in vivo
[12] = Volume of distribution at steady state in wild-type 30 mins activated charcoal pre-treated bile duct-cannulated Sprague-Dawley rat at 2 mg/kg, iv followed by activated charcoal administration 5 to 180 mins post compound dosing; assay type: ADME, organism-based; design: dose 2 mg/kg, route intravenous; conditions: in vivo, read-out: Vdss
Rattus norvegicus [13] = assay: Renal clearance in P-gp-knockout Sprague-Dawley rat at 2 mg/kg, iv relative to total clearance; assay type: ADME, organism-based, Kidney; design: dose 2 mg/kg, route intravenous; conditions: in vivo
Canis familiaris [14] = assay: Metabolism and biliary clearance in bile duct-cannulated beagle dog at 1 mg/kg, iv administered as 5 mins infusion followed by activated charcoal administration 10 to 420 mins post compound dosing; assay type: ADME, organism-based, Canis lupus familiaris; design: dose 1 mg/kg, route intravenous; conditions: in vivo
[15] = Cmax in bile duct-cannulated beagle dog at 1 mg/kg, iv administered as 5 mins infusion; assay type: ADME, organism-based, Canis lupus familiaris; design: dose 1 mg/kg, route intravenous; conditions: in vivo
[16] = Drug recovery in feces of beagle dog at 1 mg/kg, iv administered as 5 mins infusion measured up to 72 hrs; assay type: ADME, organism-based, Canis lupus familiaris; design: dose 1 mg/kg, route intravenous; conditions: read-out: Drug recovery
Canis familiaris [17] = assay: Clearance in bile duct-cannulated beagle dog at 1 mg/kg, iv administered as 5 mins infusion followed by activated charcoal administration 10 to 420 mins post compound dosing; assay type: ADME, organism-based, Canis lupus familiaris; design: dose 1 mg/kg, route intravenous; conditions: in vivo
Rattus norvegicus [18] = assay: Metabolism and biliary clearance at 8 hrs in wild-type bile duct-cannulated Sprague-Dawley rat at 2 mg/kg, iv administered 0.125 hr post GF-120918 treatment; assay type: ADME, organism-based; design: dose 2 mg/kg, route intravenous; conditions: in vivo
[19] = Volume of distribution at steady state in bile duct-cannulated beagle dog at 1 mg/kg, iv administered as 5 mins infusion followed by activated charcoal administration 10 to 420 mins post compound dosing; assay type: ADME, organism-based, Canis lupus familiaris; design: dose 1 mg/kg, route intravenous; conditions: in vivo, read-out: Vdss
[20] = Drug recovery in urine of bile duct-cannulated Sprague-Dawley rat at 2 mg/kg, iv measured up to 24 hrs; assay type: ADME, organism-based; design: dose 2 mg/kg, route intravenous; conditions: read-out: Drug recovery
[21] = Renal clearance in BCRP-knockout Sprague-Dawley rat at 2 mg/kg, iv; assay type: ADME, organism-based, Kidney; design: dose 2 mg/kg, route intravenous; conditions: in vivo
[22] = Cmax in bile duct-cannulated beagle dog at 1 mg/kg, iv administered as 5 mins infusion followed by activated charcoal administration 10 to 420 mins post compound dosing; assay type: ADME, organism-based, Canis lupus familiaris; design: dose 1 mg/kg, route intravenous; conditions: in vivo
Rattus norvegicus [23] = assay: Renal clearance in BCRP-knockout Sprague-Dawley rat at 2 mg/kg, iv relative to total clearance; assay type: ADME, organism-based, Kidney; design: dose 2 mg/kg, route intravenous; conditions: in vivo
Canis familiaris [24] = assay: AUC (0 to infinity) in bile duct-cannulated beagle dog at 1 mg/kg, iv administered as 5 mins infusion followed by activated charcoal administration 10 to 420 mins post compound dosing; assay type: ADME, organism-based, Canis lupus familiaris; design: time infinity, dose 1 mg/kg, route intravenous; conditions: in vivo
[25] = Drug recovery in bile of bile duct-cannulated beagle dog at 1 mg/kg, iv administered as 5 mins infusion measured up to 72 hrs; assay type: ADME, organism-based, Canis lupus familiaris; design: dose 1 mg/kg, route intravenous; conditions: read-out: Drug recovery
[26] = Volume of distribution at steady state in P-gp-knockout Sprague-Dawley rat at 2 mg/kg, iv; assay type: ADME, organism-based; design: dose 2 mg/kg, route intravenous; conditions: in vivo, read-out: Vdss
[27] = Drug recovery in feces of bile duct-cannulated Sprague-Dawley rat at 30 mg/kg, po measured up to 48 hrs; assay type: ADME, organism-based; design: dose 30 mg/kg, route oral; conditions: read-out: Drug recovery
Rattus norvegicus [28] = assay: Metabolism and biliary clearance in BCRP-knockout Sprague-Dawley rat at 2 mg/kg, iv; assay type: ADME, organism-based, Bile; design: dose 2 mg/kg, route intravenous; conditions: in vivo
[29] = Clearance in wild-type 30 mins activated charcoal pre-treated bile duct-cannulated Sprague-Dawley rat at 2 mg/kg, iv followed by activated charcoal administration 5 to 180 mins post compound dosing; assay type: ADME, organism-based; design: dose 2 mg/kg, route intravenous; conditions: in vivo
[30] = Drug recovery in urine of bile duct-cannulated P-gp-knockout Sprague-Dawley rat at 2 mg/kg, iv measured up to 24 hrs; assay type: ADME, organism-based; design: dose 2 mg/kg, route intravenous; conditions: read-out: Drug recovery
[31] = Volume of distribution at steady state in wild-type bile duct-cannulated Sprague-Dawley rat at 2 mg/kg, iv administered 0.125 hr post GF-120918 treatment; assay type: ADME, organism-based; design: dose 2 mg/kg, route intravenous; conditions: in vivo, with GF-120918, read-out: Vdss
Canis familiaris [32] = assay: Intestinal clearance in bile duct-cannulated beagle dog at 1 mg/kg, iv administered as 5 mins infusion followed by activated charcoal administration 10 to 420 mins post compound dosing; assay type: ADME, organism-based, Canis lupus familiaris; design: dose 1 mg/kg, route intravenous; conditions: in vivo
[33] = Mean residence time in bile duct-cannulated beagle dog at 1 mg/kg, iv administered as 5 mins infusion; assay type: ADME, organism-based, Canis lupus familiaris; design: dose 1 mg/kg, route intravenous; conditions: in vivo
[34] = AUC (0 to infinity) in BCRP-knockout Sprague-Dawley rat at 2 mg/kg, iv; assay type: ADME, organism-based; design: time infinity, dose 2 mg/kg, route intravenous; conditions: plasma
Rattus norvegicus [35] = assay: Metabolism and biliary clearance in wild-type 30 mins activated charcoal pre-treated bile duct-cannulated Sprague-Dawley rat at 2 mg/kg, iv followed by activated charcoal administration 5 to 180 mins post compound dosing; assay type: ADME, organism-based; design: dose 2 mg/kg, route intravenous; conditions: in vivo
[36] = Volume of distribution at steady state in BCRP-knockout Sprague-Dawley rat at 2 mg/kg, iv; assay type: ADME, organism-based; design: dose 2 mg/kg, route intravenous; conditions: in vivo, read-out: Vdss
Rattus norvegicus [37] = assay: Metabolism and biliary clearance at 8 hrs in wild-type bile duct-cannulated Sprague-Dawley rat at 2 mg/kg, iv administered 0.125 hr post GF-120918 treatment relative to total clearance; assay type: ADME, organism-based; design: dose 2 mg/kg, route intravenous; conditions: in vivo
Rattus norvegicus [38] = assay: Intestinal clearance in wild-type bile duct-cannulated Sprague-Dawley rat at 2 mg/kg, iv administered 0.125 hr post GF-120918 treatment relative to total clearance; assay type: ADME, organism-based; design: dose 2 mg/kg, route intravenous; conditions: in vivo
[39] = Drug recovery in feces of bile duct-cannulated BCRP-knockout Sprague-Dawley rat at 2 mg/kg, iv measured up to 24 hrs; assay type: ADME, organism-based; design: dose 2 mg/kg, route intravenous; conditions: read-out: Drug recovery
Rattus norvegicus [40] = assay: Metabolism and biliary clearance in wild-type 30 mins activated charcoal pre-treated bile duct-cannulated Sprague-Dawley rat at 2 mg/kg, iv followed by activated charcoal administration 5 to 180 mins post compound dosing relative to total clearance; assay type: ADME, organism-based; design: dose 2 mg/kg, route intravenous; conditions: in vivo
Rattus norvegicus [41] = assay: Intestinal clearance in wild-type 30 mins activated charcoal pre-treated bile duct-cannulated Sprague-Dawley rat at 2 mg/kg, iv followed by activated charcoal administration 5 to 180 mins post compound dosing relative to total clearance; assay type: ADME, organism-based; design: dose 2 mg/kg, route intravenous; conditions: in vivo

COc1ccc(-n2nc(C(N)=O)c3c2[14C](=O)N(c2ccc(N4CCCCC4=O)cc2)CC3)cc1
AUC(0-inf) [1]: 1020 ng·h/mL | MRT [2]: 1.9 h | half-life [3]: 0.8 h | MRT [4]: 0.8 h | CL (Canis familiaris [5]): 0.288 mL/min/kg | half-life [6]: 1.8 h | half-life [7]: 2.1 h | dose excreted at 24 h [8]: 14.1% | dose excreted [9]: 14.7% | dose excreted [10]: 9.9% | clearance [11]: 15 mL/min/kg | Vd [12]: 1.2 L/kg | CL (Rattus norvegicus [13]): 43% | CL (Canis familiaris [14]): 0.192 mL/min/kg | Cmax [15]: 4430 ng/mL | dose excreted [16]: 50.8% | CL (Canis familiaris [17]): 0.833 mL/min/kg | CL (Rattus norvegicus [18]): 4.17 mL/min/kg | Vd [19]: 0.2 L/kg | dose excreted at 24 h [20]: 49.5% | CL renal [21]: 5 mL/min/kg | Cmax [22]: 4330 ng/mL | CL (Rattus norvegicus [23]): 33% | AUC (Canis familiaris [24]): 5600 ng·h/mL | dose excreted [25]: 12.4% | Vd [26]: 0.7 L/kg | dose excreted at 48 h [27]: 69.8% | CL (Rattus norvegicus [28]): 4.33 mL/min/kg | clearance [29]: 33.3 mL/min/kg | dose excreted at 24 h [30]: 44.3% | Vd [31]: 1.6 L/kg | CL (Canis familiaris [32]): 0.52 mL/min/kg | MRT [33]: 2.6 h | AUC(0-inf) [34]: 2340 ng·h/mL | CL (Rattus norvegicus [35]): 11.2 mL/min/kg | Vd [36]: 1.8 L/kg | CL (Rattus norvegicus [37]): 36% | CL (Rattus norvegicus [38]): 14% | dose excreted at 24 h [39]: 34.1% | CL (Rattus norvegicus [40]): 33% | CL (Rattus norvegicus [41]): 28%
